Assay results as given in patent publication US20120034250A1, “CONDENSED PYRROLOPYRIDINE DERIVATIVE” (Astellas Pharma Inc., priority 2009, published 2012).

Tests used:
[1] = target: T1, human JAK2 kinase domain (Homo sapiens, UniProt O60674); assay: JAK inhibition test: measurement of JAK2 activity; format: biochemical; settings: 25 μM ATP, absorbance at 450 nm
T1 construct: attached to the N-terminal of the 826 to 1132 (C-terminal) fragment of the human JAK2 protein; His tag (N); purchased Carna Biosciences, Inc. (Kobe, Japan); host or cells: baculovirus expression system
T1 sequence (O60674 826-1132): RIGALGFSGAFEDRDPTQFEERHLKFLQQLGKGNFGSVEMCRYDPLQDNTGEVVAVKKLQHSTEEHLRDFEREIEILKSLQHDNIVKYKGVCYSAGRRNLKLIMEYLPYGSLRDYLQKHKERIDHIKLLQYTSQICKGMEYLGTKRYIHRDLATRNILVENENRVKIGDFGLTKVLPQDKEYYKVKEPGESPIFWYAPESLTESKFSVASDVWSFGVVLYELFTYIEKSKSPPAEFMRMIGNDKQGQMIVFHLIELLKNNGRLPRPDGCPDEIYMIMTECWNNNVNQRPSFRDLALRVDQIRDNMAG
Text: (3) Preparation of Human JAK2
(§1) A purified human JAK2 kinase domain was purchased from Carna Biosciences, Inc. (Kobe, Japan). This was obtained as follows. A His tag (39 kDa) was attached to the N-terminal of the 826 to 1132 (C-terminal) fragment of the human JAK2 protein (accession number #NP_004963.1), expressed using a baculovirus expression system, and then purified using Ni-NTA affinity column chromatography.
(4) Measurement of JAK2 Activity
(§2) As substrates, Biotin-Lyn-Substrate-2 (Biotin-XEQED EPEGF YFEWL EPE, X=ε−Acp (Peptide Institute, Inc., Osaka, Japan) and ATP were used. As an assay buffer, 15 mM Tris-HCl pH 7.5 containing 0.01% Tween 20 and 2 mM DTT was used. Normally, 20 μL of a substrate solution (an assay buffer containing 627 nM Biotin-Lyn-Substrate-2, 25 μM ATP, and 25 mM MgCl2), an assay buffer containing 10 μL of a test compound, and 20 μL of an enzyme solution were added to a microplate, and stirred sufficiently.
(§3) After incubation at room temperature for 1 hour, the plate was washed with a cleaning buffer (50 mM Tris-HCl pH 7.5, 150 mM NaCl, 0.02% Tween 20), and a blocking buffer (a cleaning buffer containing 0.1% bovine serum albumin) was added to the plate. After incubation at room temperature for 30 minutes, the blocking buffer was removed, and an HRP-PY-20 solution (obtained by diluting HRP-PY-20 solution with the blocking buffer 500 times) was added. After incubation at room temperature for 30 minutes, the plate was washed four times, and a TMB substrate solution (Sigma) was added to the plate. After incubation at room temperature for 4 minutes, 1 M sulfuric acid was added to stop the reaction. Enzyme activity was measured with an absorbance at 450 nm. The JAK2 inhibitory activity of the test compound was calculated by taking the concentration of the test compound which inhibits the JAK2 activity by 50% as an IC50 value.

[2] = target: T2, human JAK3 kinase domain (Homo sapiens, UniProt P52333); assay: JAK inhibition test: measurement of JAK3 activity; format: biochemical; settings: 20 μM ATP, absorbance at 450 nm
T2 construct: attached to the N-terminal of the 796 to 1124 (C-terminal) fragment of the human JAK3 protein; His tag (N); purchased Carna Biosciences, Inc. (Kobe, Japan); host or cells: baculovirus expression system
T2 sequence (P52333 796-1124): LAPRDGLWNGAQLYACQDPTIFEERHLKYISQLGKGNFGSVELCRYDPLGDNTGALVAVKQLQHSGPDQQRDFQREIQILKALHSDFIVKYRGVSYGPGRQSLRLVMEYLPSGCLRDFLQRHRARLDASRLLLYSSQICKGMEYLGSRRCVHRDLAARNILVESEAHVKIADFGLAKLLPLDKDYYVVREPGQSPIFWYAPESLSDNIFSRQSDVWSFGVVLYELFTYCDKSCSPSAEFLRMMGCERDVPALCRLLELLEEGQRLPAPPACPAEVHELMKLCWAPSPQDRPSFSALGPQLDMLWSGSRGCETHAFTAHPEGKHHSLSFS
Text: (5) Preparation of Human JAK3
as §1, with “JAK3” for “JAK2”, “(41” for “(39”, “796” for “826”, “1124” for “1132”, “#NM_000215),” for “#NP_004963.1),”
(6) Measurement of JAK3 Activity
as §2, with “Biotin-Lyn-Substrate-2, 20” for “Biotin-Lyn-Substrate-2, 25”, “solution” for “solution were added to a microplate, and stirred sufficiently.”
as §3, with “JAK3” for “JAK2”

[3] = target: T3, human JAK1 kinase domain (Homo sapiens, UniProt P23458); assay: JAK inhibition test: measurement of JAK1 activity; format: biochemical; settings: 500 μM ATP, absorbance at 450 nm
T3 construct: attached to the N-terminal of the 850 to 1154 (C-terminal) fragment of the human JAK1 protein; GST (N); purchased Carna Biosciences, Inc. (Kobe, Japan); host or cells: baculovirus expression system
T3 sequence (P23458 850-1154): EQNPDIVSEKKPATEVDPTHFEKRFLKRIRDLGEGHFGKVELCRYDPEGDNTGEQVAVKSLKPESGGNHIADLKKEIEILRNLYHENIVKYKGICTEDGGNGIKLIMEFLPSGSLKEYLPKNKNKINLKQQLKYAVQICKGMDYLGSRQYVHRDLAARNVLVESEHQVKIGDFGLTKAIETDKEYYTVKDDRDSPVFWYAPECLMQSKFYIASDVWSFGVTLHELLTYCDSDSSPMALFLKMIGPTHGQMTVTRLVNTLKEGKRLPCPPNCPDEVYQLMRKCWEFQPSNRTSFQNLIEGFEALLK
Text: (1) Preparation of Human JAK1
A purified human JAK1 kinase domain was purchased from Carna Biosciences, Inc. (Kobe, Japan). This was obtained as follows. A GST tag (62 kDa) was attached to the N-terminal of the 850 to 1154 (C-terminal) fragment of the human JAK1 protein (accession number #BAD92294.1), expressed using a baculovirus expression system, and then purified using Glutathion Sepharose chromatography.
(2) Measurement of JAK 1 Activity
as §2, with “Biotin-Lyn-Substrate-2, 500” for “Biotin-Lyn-Substrate-2, 25”
as §3, with “JAK1” for “JAK2”

[4] = tested on: heart transplantation rejection; assay: Rat heart transplantation (heterotopic, ACI donor to Lewis recipient); format: in vivo; settings: 20 mg/kg orally once daily for 14 days from transplantation, observed 29 days
Protocol: Heterotopic heart transplantation into the rat abdomen was performed in accordance with reference materials. With regard to the animals, ACI-based male rats were used as donors and Lewis-based male rats were used as recipients. In addition, Lewis rats were fasted the day before the transplant. The test drugs were orally administered at a dose of 20 mg/kg once daily for 14 days from the date of transplantation. For determining the heart transplantation rejection, the heart transplantation was observed daily by palpation for 29 days after transplantation, and stoppage of beating was taken as rejection. The survival period in days was counted until the day before rejection. From the survival period in days, a value of MST (Median Survival Time) was determined.

[5] = tested on: stat5 phosphorylation of CD3+lymphocytes in the blood; assay: Measurement of PD activity (stat5 phosphorylation in blood after oral dosing); format: in vivo, rat; settings: 20 mg/kg orally to normal rats, blood collected 4 hours later, cytokine stimulation, FACS
Protocol: Measurement of PD activity was carried out by evaluating the degree of stat5 phosphorylation of CD3+lymphocytes in the blood.
Compounds at (20 mg/kg) were orally administered to normal rats, and 4 hours later, 200 μL of blood was collected therefrom. For phosphorylation of stat5, stimulating cytokines (IL-2, 7, 15, etc., Peprotec) were added thereto, and CD3 antibodies fluorescently labeled (BD pharmingen) was added at a dose of 1/20, followed by incubation at 37° C. 5 mL of a lysing buffer (BD Pharmingen) was added to stop the reaction, and then washed by the addition of PBS (−) (Phosphate Buffered Saline (−), manufactured by Shin Yang Chemical Industries, Ltd.). 300 μL of a permeabilization buffer (BD Pharmingen) was added thereto, followed by immobilization on ice. The resultant was washed with a FACS buffer, and then fluorescently-labeled phosphorylation stat5 antibodies (BD Pharmingen) were added thereto, followed by further incubation at room temperature. After incubation, the cells were washed with a FACS buffer, insoluble materials were removed through a filter. Fluorescence measurement was carried out using a FACScalibur. For an individual of each rat, a sample with addition of cytokine and a sample without addition of cytokine were prepared, and a difference of the respective average fluorescence intensities (AMFI) was determined. As a control, the blood of rats to which the compound had not been administered was used, and an inhibitory rate was calculated from the average fluorescence intensity of the respective group of the samples to which the compound had been added, relative to the average fluorescence intensity of the control sample (Inhibitory Rate (%)=100*(1−(ΔMFI of Sample)/(ΔMFI of Control)).

IC50 [1] [nM] | IC50 [2] [nM] | IC50 [3] [nM] | melting point | SMILES | MST (Median Survival Time) [4] [days] | Inhibition Ratio (stat5 phosphorylation) [5] [%]
0.53 | 0.41 | 0.76 | – | C[C@@H]1CCN(C(=O)CC#N)C[C@@H]1n1cc(-c2ccncc2)c2cnc3[nH]cc(C#N)c3c21 (racemic) [Example 2-17] | – | –
0.89 | 0.61 | 3 | – | C[C@@H]1CCN(C(=O)N(C)CC#N)C[C@@H]1n1ccc2cnc3[nH]ccc3c21 (racemic) [Example 5-1] | – | –
1.6 | 1 | 6.1 | – | O[C@]12CC3C[C@H](C1)[C@H](n1ccc4cnc5[nH]ccc5c41)[C@@H](C3)C2 [Example 1, (1S,3R,4R,5s)-4-(dipyrrolo[2,3-b:2′,3′-d]pyridin-1(6H)-yl)adamantan-1-ol] | – | –
2.5 | 0.27 | 6.9 | – | C[C@@H]1CCN(C(=O)CC#N)C[C@@H]1n1cc(Br)c2cnc3[nH]cc(C#N)c3c21 (racemic) [Example 2-2] | – | –
1.4 | 0.11 | 3.2 | 288 to 290 °C (dec.) | C[C@@H]1CCN(C(=O)CC#N)C[C@@H]1n1ccc2cnc3[nH]cc(C#N)c3c21 [Example 2-19] | – | –
– | – | – | – | C[C@@H]1CCN(S(=O)(=O)N(C)CC#N)C[C@@H]1n1ccc2cnc3[nH]ccc3c21 (racemic) [Example 9-3] | – | 62
– | – | – | – | C[C@@H]1CCN(C(=O)CC#N)C[C@@H]1n1ccc2cnc3[nH]ccc3c21 (racemic) [Example 2-7] | >28 | 95
1 | 0.26 | 6.8 | – | C[C@@H]1CCN(C(=O)CC#N)C[C@@H]1n1ccc2cnc3[nH]cc(Br)c3c21 (racemic) [Example 2-4] | – | –
– | – | – | – | Cc1cc2cnc3[nH]ccc3c2n1[C@H]1CN(C(=O)CC#N)CC[C@H]1C (racemic) [Example 2-74] | – | 98
2.9 | 1.3 | 4.7 | – | Cc1nnnn1CC(=O)N1CC[C@@H](C)[C@@H](n2ccc3cnc4[nH]ccc4c32)C1 (racemic) [Example 2-15] | – | –
0.6 | 0.3 | 1.1 | – | C[C@@H]1CCN(C(=O)CC#N)C[C@@H]1n1cc(Br)c2cnc3[nH]ccc3c21 (racemic) [Example 2-5] | – | 86
3 | 0.88 | 7.9 | – | C[C@@H]1CCN(c2cnc(C#N)cn2)C[C@@H]1n1ccc2cnc3[nH]ccc3c21 (racemic) [Example 4-1] | – | –
3.5 | 1.1 | 16 | – | C[C@@H]1CCN(c2ccc(C#N)cn2)C[C@@H]1n1ccc2cnc3[nH]ccc3c21 (racemic) [Example 4] | – | –
2.5 | 0.52 | 3.1 | – | C[C@@H]1CCN(C(=O)Cn2cnnn2)C[C@@H]1n1ccc2cnc3[nH]ccc3c21 (racemic) [Example 2-14] | – | –
– | – | – | 286 to 290 °C (dec.) | C[C@H]1CCN(C(=O)CC#N)C[C@H]1n1ccc2cnc3[nH]cc(C#N)c3c21 [Example 2-18] | – | –

SMILES | IC50 [1] [nM] | IC50 [2] [nM] | IC50 [3] [nM] | melting point | MST (Median Survival Time) [4] [days] | Inhibition Ratio (stat5 phosphorylation) [5] [%]
C[C@@H]1CCN(C(=O)CC#N)C[C@@H]1n1ccc2cnc3[nH]ccc3c21 [Example 2-10] | 0.35 | 0.19 | 0.49 | – | 17 | –
